Data taken from patent US20230339878A1, “SLC26A3 INHIBITORS AND USE THEREOF” (THE REGENTS OF THE UNIVERSITY OF CALIFORNIA, priority 2018, published 2023).
Entries after “also recorded” stand apart in the source; their conditions may differ.

Tests used:
murine slc26a3 = biological target: T1, murine slc26a3 (Mus musculus, UniProt Q9WVC8); assay: slc26a3-mediated Cl-/I- exchange, YFP fluorescence quenching in FRT-YFP-slc26a3 cells; assay type: cell-based
T1 construct: host or cells: Fischer rat thyroid (FRT) cells expressing YFP, clonal line FRT-YFP-slc26a3
T1 sequence (Q9WVC8 1-757): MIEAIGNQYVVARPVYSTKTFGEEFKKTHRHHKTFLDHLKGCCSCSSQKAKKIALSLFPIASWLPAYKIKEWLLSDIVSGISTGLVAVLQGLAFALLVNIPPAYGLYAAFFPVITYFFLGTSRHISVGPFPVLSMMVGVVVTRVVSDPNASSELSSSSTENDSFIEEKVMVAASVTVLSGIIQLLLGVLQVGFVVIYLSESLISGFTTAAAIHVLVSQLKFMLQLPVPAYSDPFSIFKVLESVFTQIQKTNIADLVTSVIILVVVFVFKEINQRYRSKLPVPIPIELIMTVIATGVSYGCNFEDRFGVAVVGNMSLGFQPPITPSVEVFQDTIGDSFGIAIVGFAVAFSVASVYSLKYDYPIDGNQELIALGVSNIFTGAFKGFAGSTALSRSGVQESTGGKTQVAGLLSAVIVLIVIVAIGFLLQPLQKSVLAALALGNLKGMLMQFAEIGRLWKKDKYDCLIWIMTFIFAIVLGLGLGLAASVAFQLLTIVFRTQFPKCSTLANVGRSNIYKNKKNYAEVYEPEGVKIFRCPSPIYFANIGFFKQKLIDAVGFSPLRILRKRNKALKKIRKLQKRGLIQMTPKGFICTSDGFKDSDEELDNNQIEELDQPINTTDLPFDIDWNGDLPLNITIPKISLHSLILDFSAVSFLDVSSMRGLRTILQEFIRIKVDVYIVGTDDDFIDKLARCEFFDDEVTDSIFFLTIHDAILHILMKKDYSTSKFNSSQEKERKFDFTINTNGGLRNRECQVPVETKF

[1] = tested on: mouse distal colonic closed loops; assay: Closed distal colonic loop fluid absorption in mice; assay type: in vivo; settings: 10 µM intraluminal, 60 min
Protocol: Female CD1 mice (age 8-10 weeks) were given free access to Pedialyte (per liter: Na^+ 45 mEq, Cl^- 35 mEq, K^+ 20 mEq, dextrose 25 g; Abbott, Abbot Park, IL) but not solid food for 48 h before experiments. Mice were treated with 500 µL mineral oil once a day rectally (last dose 12 h before surgeries) during this period to evacuate the colon. Closed intestinal loops were isolated as described. Mice were anesthetized with isoflurane and body temperature was maintained during surgery at 36-38° C. using a heating pad. A small abdominal incision was made to expose the distal colon, and one closed distal colonic loop (length 1.5-2 cm) was isolated with sutures in each mouse. Loops were injected with 100 µL phosphate-buffered saline (PBS, pH: 7.4, in mM: 137 NaCl, 2.7 KCl, 8 Na2HPO4, 1.8 KH2PO4, 1 CaCl2, 0.5 MgCl2) without and with 10 µM Compound A1 and/or 10 µM tenapanor (MedChemExpress, Monmouth Junction, NJ). The abdominal incision was closed with sutures, and mice were allowed to recover from anesthesia. Colonic loops were removed at 0 and 60 min (in separate mice) and loop length and weight were measured to quantify fluid absorption. Luminal fluid was emptied with a syringe and pH was measured immediately using AB15 pH Meter (Thermo Fisher Scientific, South San Francisco, CA). In separate studies, mid-jejunal loops (length 2-3 cm, 3-4 loops per mouse) were isolated as described above, injected with 100 µL PBS without or with 10 µM Compound A1 and/or 10 µM tenapanor, and excised at 0 and 30 min to measure loop length and weight.
Closed intestinal loop studies in mice were done to study effects of Compound A1 on fluid absorption. […] Changes in luminal pH were also determined as a semi-quantitative measure of slc26a3-facilitated HCO3^- secretion / C1^- absorption, with slc26a3 inhibition predicted to reduce luminal fluid alkalinization. For these experiments, a phosphate-buffered solution (PBS) without HCO3^- / CO2 was used to avoid confounding effects of luminal carbonic anhydrases. […] Administration of the NHE3 (Na^+/H^+ exchanger 3) inhibitor tenapanor had no effect on weight/length ratio or luminal pH in distal colonic loops.

PAT-1 (slc26a6) = biological target: T2, PAT-1 (slc26a6) (Mus musculus, UniProt Q8CIW6); assay: Selectivity: slc26a6 Cl-/I- exchange in HEK cells; assay type: cell-based, murine; settings: 10 µM
T2 construct: full-length slc26a6 was subcloned into pLVX-YFP-T2A-Puro as an EcoRI to XbaI fragment; host or cells: HEK293 cells infected with lentivirus, puromycin selected
T2 sequence (Q8CIW6 1-758): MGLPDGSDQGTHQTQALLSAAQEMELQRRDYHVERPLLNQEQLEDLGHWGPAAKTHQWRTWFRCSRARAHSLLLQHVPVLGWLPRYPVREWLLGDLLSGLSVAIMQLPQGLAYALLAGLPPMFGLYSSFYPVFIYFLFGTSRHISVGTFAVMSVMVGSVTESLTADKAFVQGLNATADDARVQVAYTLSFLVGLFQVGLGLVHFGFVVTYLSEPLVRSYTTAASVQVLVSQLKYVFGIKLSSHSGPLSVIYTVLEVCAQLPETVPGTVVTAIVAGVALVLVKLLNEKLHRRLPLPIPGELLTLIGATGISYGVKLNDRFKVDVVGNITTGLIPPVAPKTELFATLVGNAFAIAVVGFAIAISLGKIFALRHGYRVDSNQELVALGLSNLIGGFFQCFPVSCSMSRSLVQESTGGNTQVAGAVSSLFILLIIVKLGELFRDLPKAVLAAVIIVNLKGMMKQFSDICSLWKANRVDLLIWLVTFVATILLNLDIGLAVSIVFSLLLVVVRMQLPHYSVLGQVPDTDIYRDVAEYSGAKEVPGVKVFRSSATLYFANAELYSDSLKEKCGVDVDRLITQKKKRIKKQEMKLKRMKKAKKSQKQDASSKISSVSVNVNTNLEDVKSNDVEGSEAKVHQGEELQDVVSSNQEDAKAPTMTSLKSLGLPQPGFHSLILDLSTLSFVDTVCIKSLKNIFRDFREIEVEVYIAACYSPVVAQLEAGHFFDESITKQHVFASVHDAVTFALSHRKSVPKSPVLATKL

Cc1c(CC(=O)O)c(=O)oc2c(C)c(OCc3cccc(Br)c3)ccc12 [Compound A1]
t½ for inhibition (murine slc26a3; 1 µM, incubation for different times prior to Cl-/I- exchange): ~ 30 s
IC50 (murine slc26a3; summary over three anion exchange modes, read-out: IC50 for slc26a3-mediated Cl- exchange with HCO3-, I- and SCN-): ~200 nM
loop weight/length ratio (fluid absorption), distal colonic loops [1]: completely prevented the reduction in loop weight/length ratio; also recorded: blocked fluid absorption in closed colonic loops; also recorded: inhibits intestinal fluid absorption in mouse distal colon
luminal pH, distal colonic loops [1]: reduced alkalinization of luminal fluid
effect on Cl-/I- exchange activity of PAT-1 (slc26a6) (PAT-1 (slc26a6)): did not alter; also recorded: did not inhibit; also recorded: differences not significant
